Source: US20230130103A1, “TARGETED PHARMACOLOGICAL THERAPEUTICS IN UVEAL MELANOMA” (Washington University, priority 2017, published 2023)

Columns and labels:
92.1 cells [1] = assay: Melanocytic re-differentiation (morphology, pigmentation, immunostaining); assay type: cell-based, Human; conditions: 7 d GSK503 and 3 d FR
Procedure: FIG. 5A Morphological changes elicited by FR. UM cell lines were treated 3 d with FR and imaged by phase contrast microscopy. FR caused UM cells driven by constitutively active Gαq (92.1 and Mel202) to lose their characteristic spindle shaped and assume a stellate shape with multiple projections. FR had no effect on BRAF-driven UM cells (OCM-1A). FIG. 5B Melanocytic differentiation of FR-treated UM cells indicated by pigmentation. UM cell lines were treated 3 d with FR. Cells were pelleted and examined macroscopically. […] Scale bar=50 μm.
(§1) Gαq-mutant 92.1 UM cells were treated with FR or vehicle, and RNA was collected 1 and 3 d after treatment for RNA-Seq analysis. FIG. 7A Unsupervised principal component analysis identified FR treatment and time in culture as the two main separable factors contributing to changes in gene expression. […] FIG. 7D FR-repressed genes identified as targets of the polycomb repressive complex 2 by Geneset enrichment analysis. FIG. 7E The Ezh1/2 inhibitor GSK503 blocks the morphological differentiation elicited by FR. 92.1 UM cells were treated 7 d with GSK503 and 3 d with FR and then imaged by phase contrast microscopy. […] 92.1 cells were treated 7 d with GSK503 and 3 d with FR and pelleted. FIG. 7G PRC2 inhibition by GSK503.
Cell fixation was carried out by adding an equal volume of 2×fixative (PBS with 4% paraformaldehyde and 0.4% glutaraldehyde) to UM cells in RPMI growth medium. After 15 min at 37° C., cells were permeabilized with 0.1% Triton X-100 in PBS for 5 min, washed with PBS, and blocked with 2% fish gelatin (Sigma-Aldrich) in PBS. Primary and secondary antibodies were diluted in 2% fish gelatin in PBS. Primary antibodies included mouse monoclonal anti-pre-melanosomal protein (One World Lab, San Diego, Calif.), rabbit polyclonal anti-tyrosinase (One World Lab), rabbit polyclonal anti-dopachrome tautomerase (One World Lab), rabbit polyclonal anti-S100 (DakoCytomation, Denmark), and mouse monoclonal anti-BrdU (Life Technologies). Secondary antibodies were Alexa-fluor conjugates (Life Technologies), and the mounting agent was ProLong Gold (Life Technologies). Cell morphology was assessed by phase contrast imaging with an inverted microscope (Olympus IX72) using a 10×objective.

92.1 cells [2] = assay: Immunoblot of histone H3 lysine 27 trimethylation (PRC2 inhibition); assay type: cell-based, Human; conditions: 7 d GSK503, FIG. 7G
Procedure: as §1
For standard immunoblots, cells were lysed and cleared in radioimmunoprecipitation assay buffer (150 mM sodium chloride, 1% Triton-X100, 0.5% sodium deoxycholate, 0.1% sodium dodecyl sulfate, 50 mM Tris, pH 8.0) with 1×Complete Protease Inhibitor (Roche, cat.11697498001). Histones were isolated from cells using the Active Motif Histone Purification Mini Kit (cat.40026, Active Motif, Carlsbad, Calif.). Lysates were resolved on 15% SDS-PAGE gels and transferred to Immobilon(P) PVDF membrane (Milipore, cat.IPVH00010). […] Following incubation, membranes were washed at least three times with TBST and signals were detected using LI-COR Odyssey model 9120 imaging system (LI-COR). […]

For `Cc1cc(C)c(CNC(=O)c2cc(-c3ccc(N4CCN(C)CC4)nc3)cc3c2c(C)cn3C(C)C)c(=O)[nH]1` [GSK503, reference compound], the “FR-induced re-differentiation (morphology)” value (92.1 cells [1]; FIG. 7E) was “blocked the ability of FR to re-differentiate these cells”, the “pigmentation of FR-treated cells” value (92.1 cells [1]; FIG. 7F) was “decreased pigmentation” and the “histone H3 lysine 27 trimethylation (immunoblot)” value (92.1 cells [2]) was “reduced histone H3 lysine 27 trimethylation”.
